Data published in US8530489B2 (Vertex Pharmaceuticals Incorporated, priority 2006, dated 2013).

Columns and labels:
Assay type in all cases: biochemical
PLK1 = PLK1 (Homo sapiens, UniProt P53350); assay: PLK1 Inhibition Assay I (radioactive-phosphate incorporation); conditions: Ki(app); PLK1 Inhibition Assay I or II (table does not say which)
Outline: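 Ki(app) values came from non-linear regression of initial rates after background subtraction, with phosphopeptide measured by phosphocellulose filter binding and scintillation counting. PLK1 at 2 nM was preincubated with compound (typically from 10 μM, 2-fold dilutions) for 10 min, then run 240 min at 25° C with 350 μM [γ-33P]ATP and 450 μM peptide substrate in HEPES pH 7.5 buffer.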

PLK2 = PLK2 (Homo sapiens, UniProt Q9NYY3); assay: PLK2 Inhibition Assay (radioactive-phosphate incorporation); conditions: selectivity ratio, PLK2 over PLK1
Description: (§1) The compounds of the present invention are evaluated as inhibitors of human PLK kinase using the following assays.
Compounds were screened for their ability to inhibit PLK2 using a radioactive-phosphate incorporation assay. Assays were carried out in a mixture of 25 mM HEPES (pH 7.5), 10 mM MgCl2, 0.1% BSA, and 2 mM DTT. Final substrate concentrations were 200 μM [γ-33P]ATP (57 mCi 33P ATP/mmol ATP, Amersham Pharmacia Biotech/Sigma Chemicals) and 300 μM peptide (KKKISDELMDATFADQEAK) [SEQ ID:3]. Assays were carried out at 25° C. in the presence of 25 nM PLK2. An assay stock buffer solution was prepared containing all of the reagents listed above, with the exception of ATP and the test compound of interest. 30 μL of the stock solution was placed in a 96 well plate followed by addition of 2 μL of DMSO stock containing serial dilutions of the test compound (typically starting from a final concentration of 10 μM with 2-fold serial dilutions) in duplicate (final DMSO concentration 5%). The plate was pre-incubated for 10 minutes at 25° C. and the reaction initiated by addition of 8 μL [γ-33P]ATP (final concentration 200 μM).
(§2) The reaction was stopped after 90 minutes by the addition of 100 μL 0.14 M phosphoric acid. A multiscreen phosphocellulose filter 96-well plate (Millipore, Cat No. MAPHN0B50) was pretreated with 100 μL 0.2M phosphoric acid prior to the addition of 125 μL of the stopped assay mixture. The plate was washed with 4×200 μL 0.2 M phosphoric acid. After drying, 100 μL Optiphase ‘SuperMix’ liquid scintillation cocktail (Perkin Elmer) was added to the well prior to scintillation counting (1450 Microbeta Liquid Scintillation Counter, Wallac).
(§3) After removing mean background values for all of the data points, Ki(app) data were calculated from non-linear regression analysis of the initial rate data using the Prism software package (GraphPad Prism version 3.0cx for Macintosh, GraphPad Software, San Diego Calif., USA).

PLK3 (S38-A340) = target: T1, PLK3 (S38-A340) (Homo sapiens, UniProt Q9H4B4); assay: PLK3 Inhibition Assay (radioactive-phosphate incorporation); conditions: selectivity ratio, PLK3 over PLK1
T1 construct: in the presence of 5 nM PLK3 (S38-A340)
Description: as §1
Compounds were screened for their ability to inhibit PLK3 using a radioactive-phosphate incorporation assay. Assays were carried out in a mixture of 25 mM HEPES (pH 7.5), 10 mM MgCl2, and 1 mM DTT. Final substrate concentrations were 75 μM [γ-33P]ATP (60 mCi 33P ATP/mmol ATP, Amersham Pharmacia Biotech/Sigma Chemicals) and 10 μM peptide (SAM68 protein Δ332-443). Assays were carried out at 25° C. in the presence of 5 nM PLK3 (S38-A340). An assay stock buffer solution was prepared containing all of the reagents listed above, with the exception of ATP and the test compound of interest. 30 μL of the stock solution was placed in a 96 well plate followed by addition of 2 μL of DMSO stock containing serial dilutions of the test compound (typically starting from a final concentration of 10 μM with 2-fold serial dilutions) in duplicate (final DMSO concentration 5%). The plate was pre-incubated for 10 minutes at 25° C. and the reaction initiated by addition of 8 μL [γ-33P]ATP (final concentration 75 μM).
as §2, with “60” for “90”, “0.14M” for “0.14 M”
as §3

PLK1, sequence (P53350 whole entry): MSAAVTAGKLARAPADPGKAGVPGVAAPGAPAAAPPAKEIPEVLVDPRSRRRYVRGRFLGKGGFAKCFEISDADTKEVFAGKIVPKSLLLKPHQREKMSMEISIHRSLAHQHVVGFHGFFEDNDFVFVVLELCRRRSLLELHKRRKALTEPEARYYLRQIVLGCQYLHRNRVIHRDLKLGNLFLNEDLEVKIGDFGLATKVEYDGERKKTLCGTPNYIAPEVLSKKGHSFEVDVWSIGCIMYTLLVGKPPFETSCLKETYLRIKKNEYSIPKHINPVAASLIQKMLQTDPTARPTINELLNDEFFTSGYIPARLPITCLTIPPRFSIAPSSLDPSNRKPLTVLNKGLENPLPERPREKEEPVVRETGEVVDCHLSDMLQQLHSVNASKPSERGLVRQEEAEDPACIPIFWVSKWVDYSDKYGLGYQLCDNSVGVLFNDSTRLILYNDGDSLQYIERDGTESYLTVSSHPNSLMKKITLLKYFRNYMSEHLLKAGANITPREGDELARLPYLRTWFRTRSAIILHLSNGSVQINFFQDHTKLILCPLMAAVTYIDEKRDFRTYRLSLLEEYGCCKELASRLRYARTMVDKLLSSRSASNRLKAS
T1 sequence (Q9H4B4 58-340 limits assumed): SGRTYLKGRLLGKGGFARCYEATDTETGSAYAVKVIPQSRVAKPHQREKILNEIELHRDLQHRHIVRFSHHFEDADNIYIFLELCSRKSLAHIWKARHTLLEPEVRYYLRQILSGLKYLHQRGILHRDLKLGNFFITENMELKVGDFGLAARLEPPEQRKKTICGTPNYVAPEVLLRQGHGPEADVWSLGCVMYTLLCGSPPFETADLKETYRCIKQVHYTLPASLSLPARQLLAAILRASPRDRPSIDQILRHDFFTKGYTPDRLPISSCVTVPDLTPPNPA
PLK2, sequence (Q9NYY3 whole entry): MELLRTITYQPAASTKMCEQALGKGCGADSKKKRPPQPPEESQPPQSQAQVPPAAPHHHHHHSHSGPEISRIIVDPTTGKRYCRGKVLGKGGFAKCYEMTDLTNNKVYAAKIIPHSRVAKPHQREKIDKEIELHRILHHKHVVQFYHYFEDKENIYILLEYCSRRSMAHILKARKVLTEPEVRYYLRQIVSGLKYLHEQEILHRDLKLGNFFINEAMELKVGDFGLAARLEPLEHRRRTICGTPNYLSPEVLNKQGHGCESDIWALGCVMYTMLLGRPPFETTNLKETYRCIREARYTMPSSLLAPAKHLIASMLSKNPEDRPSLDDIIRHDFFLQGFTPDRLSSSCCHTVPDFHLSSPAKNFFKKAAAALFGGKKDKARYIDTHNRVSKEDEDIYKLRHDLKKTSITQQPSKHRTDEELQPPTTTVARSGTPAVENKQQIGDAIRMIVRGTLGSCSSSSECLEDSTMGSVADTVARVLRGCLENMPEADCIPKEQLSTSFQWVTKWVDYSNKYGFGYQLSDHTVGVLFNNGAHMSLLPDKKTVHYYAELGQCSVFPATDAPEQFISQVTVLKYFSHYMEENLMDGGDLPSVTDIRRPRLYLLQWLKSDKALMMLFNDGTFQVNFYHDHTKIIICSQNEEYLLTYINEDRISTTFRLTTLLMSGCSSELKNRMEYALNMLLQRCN

Ki (PLK1)	Ki(PLK2)/Ki(PLK1) (PLK2)	Ki(PLK3)/Ki(PLK1) (PLK3 (S38-A340))	Structure (SMILES)
< 3 nM	523	186	C[C@@H](Nc1ncc(C#N)c(-c2c[nH]c3ncc(C(F)(F)F)cc23)n1)c1ccc(N2CCN(C)CC2)nc1 (single isomer, unassigned) [Compound I-147]
< 3 nM	113	28	CC(Nc1ncc(C#N)c(-c2c[nH]c3ncc(C(F)(F)F)cc23)n1)c1ccc(N2CCN(C)CC2)cc1 (centres unmarked) [Compound I-102, 2-(1-(4-(4-methylpiperazin-1-yl)phenyl)ethylamino)-4-(5-(trifluoromethyl)-1H-pyrrolo[2,3-b]pyridin-3-yl)pyrimidine-5-carbonitrile]
< 3 nM	323	185	CC(Nc1ncc(C#N)c(-c2c[nH]c3ncc(C(F)(F)F)cc23)n1)c1ccc(N2CCNCC2)cc1 (centres unmarked) [Compound I-124, 2-(1-(4-(piperazin-1-yl)phenyl)ethylamino)-4-(5-(trifluoromethyl)-1H-pyrrolo[2,3-b]pyridin-3-yl)pyrimidine-5-carbonitrile]
< 3 nM	211	126	CC(Nc1ncc(C#N)c(-c2c[nH]c3ncc(C(F)(F)F)cc23)n1)c1ccc(N2CCCN(C)CC2)cc1 (centres unmarked) [Compound I-126, 2-(1-(4-(4-methyl-1,4-diazepan-1-yl)phenyl)ethylamino)-4-(5-(trifluoromethyl)-1H-pyrrolo[2,3-b]pyridin-3-yl)pyrimidine-5-carbonitrile]
< 3 nM	1152	–	C[C@@H](Nc1ncc(C#N)c(-c2c[nH]c3ncc(C(F)(F)F)cc23)n1)c1ccc(N2CCNCC2)nc1 [Compound I-267, 2-((R)-1-(6-(piperazin-1-yl)pyridin-3-yl)ethylamino)-4-(5-(trifluoromethyl)-1H-pyrrolo[2,3-b]pyridin-3-yl)pyrimidine-5-carbonitrile]
< 3 nM	4074	–	C[C@@H]1CN(c2ccc([C@@H](C)Nc3ncc(C#N)c(-c4c[nH]c5ncc(C(F)(F)F)cc45)n3)cn2)CCN1 [Compound I-274, 2-((R)-1-(6-((R)-3-methylpiperazin-1-yl)pyridin-3-yl)ethylamino)-4-(5-(trifluoromethyl)-1H-pyrrolo[2,3-b]pyridin-3-yl)pyrimidine-5-carbonitrile]
< 3 nM	2952	–	C[C@@H]1CN(c2ccc([C@@H](C)Nc3ncc(C#N)c(-c4c[nH]c5ncc(C(F)(F)F)cc45)n3)cn2)C[C@H](C)N1 [Compound I-276, 2-((R)-1-(6-((3S,5R)-3,5-dimethylpiperazin-1-yl)pyridin-3-yl)ethylamino)-4-(5-(trifluoromethyl)-1H-pyrrolo[2,3-b]pyridin-3-yl)pyrimidine-5-carbonitrile]
< 3 nM	–	39	CC(Nc1ncc(C#N)c(-c2c[nH]c3ncc(C(F)(F)F)cc23)n1)c1ccc(N[C@H]2CCNC2)nc1 (stereo partly drawn) [Compound I-277, 2-(1-(6-((S)-pyrrolidin-3-ylamino)pyridin-3-yl)ethylamino)-4-(5-(trifluoromethyl)-1H-pyrrolo[2,3-b]pyridin-3-yl)pyrimidine-5-carbonitrile]
> 40 nM	–	–	N#Cc1cnc(Sc2ccc(Cl)cc2)nc1-c1c[nH]c2ncc(C(F)(F)F)cc12 [II-2, 2-(4-chlorophenylthio)-4-(5-(trifluoromethyl)-1H-pyrrolo[2,3-b]pyridin-3-yl)pyrimidine-5-carbonitrile]
> 40 nM	–	–	COc1ccc(Sc2ncc(C#N)c(-c3c[nH]c4ncc(C(F)(F)F)cc34)n2)cc1 [II-3, 2-(4-methoxyphenylthio)-4-(5-(trifluoromethyl)-1H-pyrrolo[2,3-b]pyridin-3-yl)pyrimidine-5-carbonitrile]
> 40 nM	–	–	N#Cc1cnc(Sc2cccc(Br)c2)nc1-c1c[nH]c2ncc(C(F)(F)F)cc12 [II-4, 2-(3-bromophenylthio)-4-(5-(trifluoromethyl)-1H-pyrrolo[2,3-b]pyridin-3-yl)pyrimidine-5-carbonitrile]
> 40 nM	–	–	N#Cc1cnc(Sc2ccccc2Cl)nc1-c1c[nH]c2ncc(C(F)(F)F)cc12 [II-5, 2-(2-chlorophenylthio)-4-(5-(trifluoromethyl)-1H-pyrrolo[2,3-b]pyridin-3-yl)pyrimidine-5-carbonitrile]
> 40 nM	–	–	N#Cc1cnc(Sc2cccc(Cl)c2)nc1-c1c[nH]c2ncc(C(F)(F)F)cc12 [II-6, 2-(3-chlorophenylthio)-4-(5-(trifluoromethyl)-1H-pyrrolo[2,3-b]pyridin-3-yl)pyrimidine-5-carbonitrile]
> 40 nM	–	–	N#Cc1cnc(Sc2ccccc2Br)nc1-c1c[nH]c2ncc(C(F)(F)F)cc12 [II-7, 2-(2-bromophenylthio)-4-(5-(trifluoromethyl)-1H-pyrrolo[2,3-b]pyridin-3-yl)pyrimidine-5-carbonitrile]
> 40 nM	–	–	N#Cc1cnc(Sc2ccc(Br)cc2)nc1-c1c[nH]c2ncc(C(F)(F)F)cc12 [II-8, 2-(4-bromophenylthio)-4-(5-(trifluoromethyl)-1H-pyrrolo[2,3-b]pyridin-3-yl)pyrimidine-5-carbonitrile]
> 40 nM	–	–	CCOc1cccc(Sc2ncc(C#N)c(-c3c[nH]c4ncc(C(F)(F)F)cc34)n2)c1 [II-9, 2-(3-ethoxyphenylthio)-4-(5-(trifluoromethyl)-1H-pyrrolo[2,3-b]pyridin-3-yl)pyrimidine-5-carbonitrile]
> 40 nM	–	–	N#Cc1cnc(SCCc2ccccc2)nc1-c1c[nH]c2ncc(C(F)(F)F)cc12 [II-10, 2-(phenethylthio)-4-(5-(trifluoromethyl)-1H-pyrrolo[2,3-b]pyridin-3-yl)pyrimidine-5-carbonitrile]
> 40 nM	–	–	COc1cccc(Sc2ncc(C#N)c(-c3c[nH]c4ncc(C(F)(F)F)cc34)n2)c1 [II-11, 2-(3-methoxyphenylthio)-4-(5-(trifluoromethyl)-1H-pyrrolo[2,3-b]pyridin-3-yl)pyrimidine-5-carbonitrile]
> 40 nM	–	–	CC(C)Sc1ncc(C#N)c(-c2c[nH]c3ncc(C(F)(F)F)cc23)n1 [II-12, 2-(isopropylthio)-4-(5-(trifluoromethyl)-1H-pyrrolo[2,3-b]pyridin-3-yl)pyrimidine-5-carbonitrile]
> 40 nM	–	–	N#Cc1cnc(SC2CCCCC2)nc1-c1c[nH]c2ncc(C(F)(F)F)cc12 [II-13, 2-(cyclohexylthio)-4-(5-(trifluoromethyl)-1H-pyrrolo[2,3-b]pyridin-3-yl)pyrimidine-5-carbonitrile]
> 40 nM	–	–	COc1ccccc1Sc1ncc(C#N)c(-c2c[nH]c3ncc(C(F)(F)F)cc23)n1 [II-14, 2-(2-methoxyphenylthio)-4-(5-(trifluoromethyl)-1H-pyrrolo[2,3-b]pyridin-3-yl)pyrimidine-5-carbonitrile]
> 40 nM	–	–	CCCC(CCO)Sc1ncc(C#N)c(-c2c[nH]c3ncc(C(F)(F)F)cc23)n1 (centres unmarked) [II-15, 2-(1-hydroxyhexan-3-ylthio)-4-(5-(trifluoromethyl)-1H-pyrrolo[2,3-b]pyridin-3-yl)pyrimidine-5-carbonitrile]
> 40 nM	–	–	CCCC(C)Sc1ncc(C#N)c(-c2c[nH]c3ncc(C(F)(F)F)cc23)n1 (centres unmarked) [II-16, 2-(pentan-2-ylthio)-4-(5-(trifluoromethyl)-1H-pyrrolo[2,3-b]pyridin-3-yl)pyrimidine-5-carbonitrile]
